Test results taken from patent US8952024B2, “Herbicidal pyrimidone derivatives” (E I du Pont de Nemours and Company, priority 2009, dated 2015).

Key:
Type in all cases: in vivo
[1] = tested on: umbrella sedge (Cyperus difformis); assay: Test B flooded paddy test; conditions: for Plant response rating, Flood, Sedge, Umbrella: 250 g ai/ha, flooded paddy test, visual rating on 0 to 100 scale (0 no effect, 100 complete control) after 13 to 15 days; for Plant response rating, Sedge, Umbrella: Flood (flooded paddy test), 13 to 15 days
Summary of the method: (§1)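 Plants were grown to the 2-leaf stage, then pots were flooded to 3 cm above the soil and compounds were applied directly into the paddy water. That depth was held throughout. After 13 to 15 days in a greenhouse, injury was visually rated against controls on a 0–100 scale.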

rice (Oryza sativa) = assay: Test B flooded paddy test; conditions: for Plant response rating, Flood, Rice: 250 g ai/ha, flooded paddy test, visual rating on 0 to 100 scale (0 no effect, 100 complete control) after 13 to 15 days; for Plant response rating, Rice: Flood (flooded paddy test), 13 to 15 days
Summary of the method: as §1

[2] = tested on: blackgrass (Alopecurus myosuroides); assay: Test B pre-/postemergence plant response
Summary of the method: (§2)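 Seeds sown in loam–sand blend were treated preemergence, and plants at 2–18 cm (1- to 4-leaf stage) in peat-based medium were treated postemergence; compounds were formulated in non-phytotoxic solvent with surfactant. After 13–15 days in greenhouse, response was visually rated against controls, 0 (no effect) to 100 (complete control).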

[3] = tested on: Surinam grass (Brachiaria decumbens); assay: Test B pre-/postemergence plant response
Summary of the method: as §2

[4] = tested on: pigweed (Amaranthus retroflexus); assay: Test B pre-/postemergence plant response
Summary of the method: as §2

[5] = tested on: lambsquarters (Chenopodium album); assay: Test B pre-/postemergence plant response
Summary of the method: as §2

[6] = tested on: giant foxtail (Setaria faberii); assay: Test B pre-/postemergence plant response
Summary of the method: as §2

[7] = tested on: johnsongrass (Sorghum halepense); assay: Test B pre-/postemergence plant response
Summary of the method: as §2

[8] = tested on: green foxtail (Setaria viridis); assay: Test B pre-/postemergence plant response
Summary of the method: as §2

wild oat (Avena fatua) = assay: Test B pre-/postemergence plant response
Summary of the method: as §2

corn (Zea mays) = assay: Test B pre-/postemergence plant response
Summary of the method: as §2

[9] = tested on: ragweed (common ragweed, Ambrosia elatior); assay: Test B pre-/postemergence plant response
Summary of the method: as §2

[10] = tested on: goosegrass (Eleusine indica); assay: Test B pre-/postemergence plant response
Summary of the method: as §2

[11] = 31 g ai/ha, scale of 0 to 100 where 0 is no effect and 100 is complete control
[12] = 62 g ai/ha, scale 0 to 100, 0 is no effect, 100 is complete control
[13] = 125 g ai/ha, scale 0 to 100, 0 is no effect, 100 is complete control
[14] = 250 g ai/ha, Preemergence, 0 to 100 scale
[15] = Postemergence, 31 g ai/ha, scale 0 to 100 (0 no effect, 100 complete control)
[16] = Postemergence, 62 g ai/ha, scale 0 (no effect) to 100 (complete control), 13 to 15 days
[17] = Postemergence, 125 g ai/ha, visual rating after 13 to 15 days, scale 0 (no effect) to 100 (complete control)
[18] = Postemergence, 250 g ai/ha, scale 0 to 100
[19] = Preemergence, 31 g ai/ha, scale 0 to 100 (0 no effect, 100 complete control)
[20] = Preemergence, 62 g ai/ha, scale 0 to 100 (0 no effect, 100 complete control)
[21] = Preemergence, 125 g ai/ha, 0 to 100 scale
[22] = Preemergence, 0 is no effect, 100 is complete control, rated after 13 to 15 days, application rate of this section not shown

Substance: 3-cyclohexyl-5-[(2-hydroxy-6-oxo-1-cyclohexen-1-yl)carbonyl]-2-phenyl-4(3H)-pyrimidinone [Compound 128]
- Plant response rating, Flood, Sedge, Umbrella [1]: 85
- Plant response rating, Sedge, Umbrella [1, 11]: 0
- Plant response rating, Sedge, Umbrella [1, 12]: 0
- Plant response rating, Sedge, Umbrella [1, 13]: 40
- Plant response rating, Flood, Rice (rice (Oryza sativa)): 25
- Plant response rating, Rice (rice (Oryza sativa); [11]): 0
- Plant response rating, Rice (rice (Oryza sativa); [12]): 10
- Plant response rating, Rice (rice (Oryza sativa); [13]): 20
- Plant response rating, Blackgrass [2, 14]: 60
- Plant response rating, Blackgrass [2, 15]: 5
- Plant response rating, Blackgrass [2, 16]: 5
- Plant response rating, Blackgrass [2, 17]: 40
- Blackgrass plant response rating [2, 18]: 40
- Plant response rating, Blackgrass [2, 19]: 0
- Plant response rating, Blackgrass [2, 20]: 5
- Blackgrass plant response rating [2, 21]: 30
- Plant response rating, Surinam Grass [3, 14]: 75
- Plant response rating, Surinam Grass [3, 15]: 60
- Plant response rating, Surinam Grass [3, 16]: 70
- Plant response rating, Surinam Grass [3, 17]: 85
- Surinam Grass plant response rating [3, 18]: 85
- Plant response rating, Surinam Grass [3, 19]: 0
- Plant response rating, Surinam Grass [3, 20]: 25
- Surinam Grass plant response rating [3, 21]: 35
- Plant response rating, Pigweed [4, 14]: 100
- Plant response rating, Pigweed [4, 15]: 65
- Plant response rating, Pigweed [4, 16]: 80
- Plant response rating, Pigweed [4, 17]: 85
- Pigweed plant response rating [4, 18]: 98
- Plant response rating, Pigweed [4, 19]: 100
- Plant response rating, Pigweed [4, 20]: 100
- Pigweed plant response rating [4, 21]: 100
- Plant response rating, Lambsquarters [5, 14]: 100
- Plant response rating, Lambsquarters [5, 15]: 50
- Plant response rating, Lambsquarters [5, 16]: 70
- Plant response rating, Lambsquarters [5, 17]: 95
- Lambsquarters plant response rating [5, 18]: 98
- Plant response rating, Lambsquarters [5, 19]: 100
- Plant response rating, Lambsquarters [5, 20]: 100
- Lambsquarters plant response rating [5, 21]: 100
- Plant response rating, Foxtail, Giant [6, 14]: 100
- Plant response rating, Foxtail, Giant [6, 15]: 75
- Plant response rating, Foxtail, Giant [6, 16]: 85
- Plant response rating, Foxtail, Giant [6, 17]: 98
- Foxtail, Giant plant response rating [6, 18]: 100
- Plant response rating, Foxtail, Giant [6, 19]: 0
- Plant response rating, Foxtail, Giant [6, 20]: 35
- Foxtail, Giant plant response rating [6, 21]: 75
- Plant response rating, Johnsongrass [7, 14]: 98
- Plant response rating, Johnsongrass [7, 15]: 65
- Plant response rating, Johnsongrass [7, 16]: 70
- Plant response rating, Johnsongrass [7, 17]: 90
- Johnsongrass plant response rating [7, 18]: 98
- Plant response rating, Johnsongrass [7, 19]: 0
- Plant response rating, Johnsongrass [7, 20]: 55
- Johnsongrass plant response rating [7, 21]: 85
- Plant response rating, Foxtail, Green [8, 14]: 65
- Plant response rating, Foxtail, Green [8, 15]: 60
- Plant response rating, Foxtail, Green [8, 16]: 60
- Plant response rating, Foxtail, Green [8, 17]: 85
- Foxtail, Green plant response rating [8, 18]: 98
- Plant response rating, Foxtail, Green [8, 19]: 0
- Plant response rating, Foxtail, Green [8, 20]: 25
- Foxtail, Green plant response rating [8, 21]: 65
- Plant response rating, Oat, Wild (wild oat (Avena fatua); [14]): 40
- Plant response rating, Oat, Wild (wild oat (Avena fatua); [15]): 50
- Plant response rating, Oat, Wild (wild oat (Avena fatua); [16]): 50
- Plant response rating, Oat, Wild (wild oat (Avena fatua); [17]): 70
- Oat, Wild plant response rating (wild oat (Avena fatua); [18]): 70
- Plant response rating, Oat, Wild (wild oat (Avena fatua); [19]): 0
- Plant response rating, Oat, Wild (wild oat (Avena fatua); [20]): 0
- Oat, Wild plant response rating (wild oat (Avena fatua); [21]): 10
- Plant response rating, Corn (corn (Zea mays); [14]): 35
- Plant response rating, Corn (corn (Zea mays); [15]): 70
- Plant response rating, Corn (corn (Zea mays); [16]): 75
- Plant response rating, Corn (corn (Zea mays); [17]): 80
- Corn plant response rating (corn (Zea mays); [18]): 85
- Plant response rating, Corn (corn (Zea mays); [19]): 0
- Plant response rating, Corn (corn (Zea mays); [20]): 0
- Corn plant response rating (corn (Zea mays); [21]): 0
- Plant response rating, Ragweed [9, 14]: 100
- Plant response rating, Ragweed [9, 15]: 100
- Plant response rating, Ragweed [9, 16]: 100
- Plant response rating, Ragweed [9, 17]: 100
- Ragweed plant response rating [9, 18]: 100
- Plant response rating, Ragweed [9, 19]: 65
- Plant response rating, Ragweed [9, 20]: 100
- Ragweed plant response rating [9, 21]: 100
- Plant response rating, Goosegrass [10, 14]: 100
- Plant response rating, Goosegrass [10, 15]: 65
- Plant response rating, Goosegrass [10, 16]: 85
- Plant response rating, Goosegrass [10, 17]: 95
- Goosegrass plant response rating [10, 18]: 98
- Plant response rating, Goosegrass [10, 19]: 70
- Goosegrass plant response rating [10, 21]: 100

Substance: 5-[(2-hydroxy-6-oxo-1-cyclohexen-1-yl)carbonyl]-2,3-diphenyl-4(3H)-pyrimidinone [Compound 2]
- Plant response rating, Flood, Sedge, Umbrella [1]: 0
- Plant response rating, Sedge, Umbrella [1, 11]: 0
- Plant response rating, Sedge, Umbrella [1, 12]: 0
- Plant response rating, Sedge, Umbrella [1, 13]: 0
- Plant response rating, Flood, Rice (rice (Oryza sativa)): 0
- Plant response rating, Rice (rice (Oryza sativa); [11]): 0
- Plant response rating, Rice (rice (Oryza sativa); [12]): 0
- Plant response rating, Rice (rice (Oryza sativa); [13]): 0
- Plant response rating, Blackgrass [2, 15]: 0
- Plant response rating, Blackgrass [2, 16]: 0
- Plant response rating, Blackgrass [2, 17]: 5
- Blackgrass plant response rating [2, 18]: 5
- Plant response rating, Surinam Grass [3, 15]: 0
- Plant response rating, Surinam Grass [3, 16]: 0
- Plant response rating, Surinam Grass [3, 17]: 10
- Surinam Grass plant response rating [3, 18]: 20
- Surinam Grass plant response rating (0 to 100 scale) [3, 22]: 0
- Plant response rating, Pigweed [4, 15]: 65
- Plant response rating, Pigweed [4, 16]: 80
- Plant response rating, Pigweed [4, 17]: 85
- Pigweed plant response rating [4, 18]: 90
- Plant response rating, Lambsquarters [5, 15]: 70
- Plant response rating, Lambsquarters [5, 16]: 75
- Plant response rating, Lambsquarters [5, 17]: 90
- Lambsquarters plant response rating [5, 18]: 90
- Plant response rating, Foxtail, Giant [6, 15]: 0
- Plant response rating, Foxtail, Giant [6, 16]: 15
- Plant response rating, Foxtail, Giant [6, 17]: 20
- Foxtail, Giant plant response rating [6, 18]: 50
- Plant response rating, Johnsongrass [7, 15]: 0
- Plant response rating, Johnsongrass [7, 16]: 0
- Plant response rating, Johnsongrass [7, 17]: 0
- Johnsongrass plant response rating [7, 18]: 20
- Plant response rating, Foxtail, Green [8, 15]: 5
- Plant response rating, Foxtail, Green [8, 16]: 10
- Plant response rating, Foxtail, Green [8, 17]: 30
- Foxtail, Green plant response rating [8, 18]: 40
- Plant response rating, Oat, Wild (wild oat (Avena fatua); [15]): 5
- Plant response rating, Oat, Wild (wild oat (Avena fatua); [16]): 5
- Plant response rating, Oat, Wild (wild oat (Avena fatua); [17]): 10
- Oat, Wild plant response rating (wild oat (Avena fatua); [18]): 10
- Plant response rating, Corn (corn (Zea mays); [15]): 0
- Plant response rating, Corn (corn (Zea mays); [16]): 0
- Plant response rating, Corn (corn (Zea mays); [17]): 0
- Corn plant response rating (corn (Zea mays); [18]): 0
- Plant response rating, Ragweed [9, 15]: 60
- Plant response rating, Ragweed [9, 16]: 70
- Plant response rating, Ragweed [9, 17]: 70
- Ragweed plant response rating [9, 18]: 75
- Ragweed plant response rating (0 to 100 scale) [9, 22]: 25
- Plant response rating, Goosegrass [10, 15]: 60
- Plant response rating, Goosegrass [10, 16]: 60
- Plant response rating, Goosegrass [10, 17]: 65
- Goosegrass plant response rating [10, 18]: 80
